Measured values: patent US20220175974A1, “TARGETING COMPOUNDS FOR CANCERS SELECTED FROM ESOPHAGUS, PHARYNX AND LARYNX, LUNG, BRAIN, AND INTESTINES” (HQ MEDICAL NETHERLANDS B.V., priority 2019, published 2022)

Experiments:
[1] = test system: intracellular proteins, including tubulin and actin; experiment: binding of cyanine targeting molecules to intracellular proteins
Source text: (§1) The present targeting molecule is very selective and very specific in binding to necrotic cells. […] For the present invention four specific cyanines are selected, namely HQ4, HQ5, CW-800 and ZW-800. These molecules are found to have a high affinity towards the intracellular proteins, including tubulin and actin. […] As a result very low concentrations c.q. amounts of the present system may be used to provide advantageous effects thereof. It is noted that apoptosis specific probes, in contrast to necrosis specific probes will also target healthy tissue as apoptosis is involved in normal tissue turnover. The present cyanine is attached to a second entity, namely a chelator, wherein the chelator is selected from DOTA and NOTA (DOTA: 1,4,7,10-Tetraazacyclododecane-1,4,7,10-tetraacetic acid and NOTA: 1,4,7-triazacyclononane-N,N′,N″-triacetic acid). Attached to the chelator is attached a third entity, namely a radionuclide selected from Cu, In, Gd, Ga, Lu, Y, I, and Zr. The present system is found to be effective as a medicament, also referred to as drug, for cancers selected from esophagus, pharynx and larynx, lung, brain, and intestines. These cancers are considered to relate to and being associated with the Central Nervous system, the respiratory tract, the gastro-intestinal tract, […], and head-neck region, respectively. […]

[2] = clearance of the cyanines in the human body; type: in vivo
Source text: as §1

affinity towards the intracellular proteins [1]: high affinity
Structure (SMILES): CC1(C)C(/C=C/C2=C(Oc3ccc(S(=O)(=O)O)cc3)C(=C/C=C3/N(CCCCS(=O)(=O)O)c4ccc(S(=O)(=O)[O-])cc4C3(C)C)/CCC2)=[N+](CCCCCC(=O)O)c2ccc(S(=O)(=O)O)cc21 [CW-800]
clearance in the human body [2]: cleared in the human body specifically well
